T/C data for 14 compounds are collected here from PubChem BioAssay AID298 (DTP/NCI, 2004).

Values joined by “and” are separate entries in the source; they are usually repeats but may differ in a detail not shown here. Equal entries are not always repeated. Inconclusive results are not listed.

The test concerns MX-1 breast xenograft, intrarenal, nude mice, tumor weight. The experiment in a line: NCI In Vivo Anticancer Drug Screen. Data for tumor model Human Mammary Carcinoma MX-1 Xenograft (intrarenal inoculation) in NU/NU BALB/C (nude) mice. Conditions: endpoint: mean tumor weight change, higher = larger tumour. An outline of the steps: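 Compounds were given to mice carrying transplanted tumors, and tumor size or survival was measured. Each value is the treated-group measurement (T) divided by the vehicle-treated control-group measurement (C).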
(In general: Xenograft models place foreign cells or tissue in a host animal.)

[1] abbreviates: dose: 25.0 mg/kg/injection, schedule: Q04DX003 (ip), vehicle: saline.
Setting [2] is: dose: 50.0 mg/kg/injection, schedule: Q04DX003 (ip), vehicle: saline.
Setting [3] is: dose: 300.0 mg/kg/injection, schedule: Q04DX003 (sc), vehicle: saline with Tween-80.
The mark [4] stands for this setting: dose: 600.0 mg/kg/injection, schedule: Q04DX003 (sc), vehicle: saline with Tween-80.
Setting [5] is: dose: 1200.0 mg/kg/injection, schedule: Q04DX003 (sc), vehicle: saline with Tween-80.
[6] abbreviates: dose: 2400.0 mg/kg/injection, schedule: Q04DX003 (sc), vehicle: saline with Tween-80.
Where [7] appears, read: dose: 50.0 mg/kg/injection, schedule: Q01DX010 (sc), vehicle: saline.
Setting [8] is: dose: 300.0 mg/kg/injection, schedule: Q04DX003 (ip), vehicle: saline with Tween-80.
Where [9] appears, read: dose: 600.0 mg/kg/injection, schedule: Q04DX003 (ip), vehicle: saline with Tween-80.
The mark [10] stands for this setting: dose: 1200.0 mg/kg/injection, schedule: Q04DX003 (ip), vehicle: saline with Tween-80.

Regarding `COc1cccc2c1C(CO)N1C(C#N)C3CC(C(=O)O)C(C1C2)N3C` (centres undefined), the T/C is 31 % of control (dose: 3.75 mg/kg/injection, schedule: Q04DX003 (ip), vehicle: saline); -61 % of control (dose: 6.25 mg/kg/injection, schedule: Q01DX010 (ip), vehicle: saline); 9 % of control (dose: 6.25 mg/kg/injection, schedule: Q04DX003 (ip), vehicle: saline); 10 % of control (dose: 6.25 mg/kg/injection, schedule: Q04DX003 (ip), vehicle: suspension in saline); 40 % of control (dose: 7.5 mg/kg/injection, schedule: Q04DX003 (ip), vehicle: saline); -100 % of control (dose: 12.5 mg/kg/injection, schedule: Q01DX010 (ip), vehicle: saline). Further, the T/C by setting is: (dose: 12.5 mg/kg/injection, schedule: Q04DX003 (ip), vehicle: saline) 17 % of control; (dose: 12.5 mg/kg/injection, schedule: Q04DX003 (ip), vehicle: suspension in saline) 6 % of control; (dose: 15.0 mg/kg/injection, schedule: Q04DX003 (ip), vehicle: saline) 38 % of control; (dose: 25.0 mg/kg/injection, schedule: Q01DX010 (ip), vehicle: saline) -99 % of control; under setting [1], 14 % of control; (dose: 25.0 mg/kg/injection, schedule: Q04DX003 (ip), vehicle: suspension in saline) -48 % of control. The T/C (dose: 30.0 mg/kg/injection, schedule: Q04DX003 (ip), vehicle: saline) was 58 % of control; the T/C under setting [2] was 2 % of control; the T/C (dose: 50.0 mg/kg/injection, schedule: Q04DX003 (ip), vehicle: suspension in saline) is -79 % of control; the T/C (dose: 60.0 mg/kg/injection, schedule: Q04DX003 (ip), vehicle: saline) is 13 % of control.

For the compound `Nc1nc2c(ncn2C2OC(CO)C(O)C2O)c(=O)[nH]1` (centres undefined), the T/C is 84 % of control under setting [3], 81 % of control under setting [4], 82 % of control under setting [5] and 88 % of control under setting [6].

Take `Cc1cc(SCC(=O)c2ccc(Br)cc2)cc(C)[o+]1`: the T/C was 91 % of control under setting [7]; 124 % of control (dose: 100.0 mg/kg/injection, schedule: Q01DX010 (sc), vehicle: saline); 71 % of control (dose: 200.0 mg/kg/injection, schedule: Q01DX010 (sc), vehicle: saline); 102 % of control (dose: 400.0 mg/kg/injection, schedule: Q01DX010 (sc), vehicle: saline).

For `CN(C)CCCN=c1c2ccccc2n(C)c2[nH]c(=O)n(C)c(=O)c12`, the T/C was 112 % of control under setting [1] and 82 % of control under setting [2].

Consider `OC(CBr)C(O)C(O)C(O)CBr` (centres undefined), for which the T/C (dose: 15.0 mg/kg/injection, schedule: Q01DX010 (ip), vehicle: Klucel (hydroxypropylcellulose) (HPC)) is 29 % of control; the T/C (dose: 30.0 mg/kg/injection, schedule: Q01DX010 (ip), vehicle: Klucel (hydroxypropylcellulose) (HPC)) was 13 % of control; the T/C (dose: 50.0 mg/kg/injection, schedule: Q04DX003 (ip), vehicle: Klucel (hydroxypropylcellulose) (HPC)) was 93 % of control; the T/C (dose: 50.0 mg/kg/injection, schedule: Q04DX003 (sc), vehicle: Klucel (hydroxypropylcellulose) (HPC)) is 35 % of control; the T/C (dose: 60.0 mg/kg/injection, schedule: Q01DX010 (ip), vehicle: Klucel (hydroxypropylcellulose) (HPC)) is -22 % of control; the T/C (dose: 100.0 mg/kg/injection, schedule: Q04DX003 (ip), vehicle: Klucel (hydroxypropylcellulose) (HPC)) was 61 % of control. Further, the T/C is, setting by setting: (dose: 100.0 mg/kg/injection, schedule: Q04DX003 (sc), vehicle: Klucel (hydroxypropylcellulose) (HPC)) 33 % of control; (dose: 200.0 mg/kg/injection, schedule: Q04DX003 (ip), vehicle: Klucel (hydroxypropylcellulose) (HPC)) -44 % of control.

Consider `COc1ccc2c(c1)-c1nn(CCCN(C)C)c3ccc([N+](=O)[O-])c(c13)N2`, for which the T/C is 66 % of control and 79 % of control (dose: 12.5 mg/kg/injection, schedule: Q04DX003 (ip), vehicle: water); 53 % of control and 56 % of control (dose: 25.0 mg/kg/injection, schedule: Q04DX003 (ip), vehicle: water); 19 % of control and 38 % of control and 41 % of control (dose: 50.0 mg/kg/injection, schedule: Q04DX003 (ip), vehicle: water); 13 % of control (dose: 100.0 mg/kg/injection, schedule: Q04DX003 (ip), vehicle: water).

On to `O=C1C=CC(=CC=C2C=CN(CCCCCCCCCCCO)C=C2)C=C1`, for which the T/C is 89 % of control (dose: 12.5 mg/kg/injection, schedule: Q04DX003 (ip), vehicle: saline with Tween-80); 84 % of control (dose: 25.0 mg/kg/injection, schedule: Q04DX003 (ip), vehicle: saline with Tween-80); 69 % of control (dose: 50.0 mg/kg/injection, schedule: Q04DX003 (ip), vehicle: saline with Tween-80).

Turning to `COC1=C(OC)C(=O)C(SC/C=C(\C)CCCC(C)CCCC(C)CCCC(C)C)=CC1=O` (centres undefined), the T/C is 220 % of control under setting [8], 61 % of control under setting [9] and 75 % of control under setting [10].

For `O=C(Nc1cccc(Cl)c1)ON1C(=O)C2C(C1=O)C1(Cl)C(Cl)C(Cl)C2(Cl)C1(Cl)Cl` (centres undefined), the T/C under setting [3] was 91 % of control, the T/C under setting [4] was 100 % of control, the T/C under setting [5] is 91 % of control and the T/C under setting [6] was 114 % of control.

Consider `Nc1ccc(C(=O)Nc2ccccc2N)cc1`, for which the T/C is 91 % of control (dose: 25.0 mg/kg/injection, schedule: Q01DX010 (ip), vehicle: saline with Tween-80); 87 % of control (dose: 50.0 mg/kg/injection, schedule: Q01DX010 (ip), vehicle: saline with Tween-80); 84 % of control (dose: 100.0 mg/kg/injection, schedule: Q01DX010 (ip), vehicle: saline with Tween-80); 36 % of control (dose: 200.0 mg/kg/injection, schedule: Q01DX010 (ip), vehicle: saline with Tween-80).

For the compound `CC(=O)O[C@H]1C(=O)[C@@]2(C)C(C(OC(=O)c3ccccc3)[C@]3(O)C[C@H](OC(=O)C(OC(=O)CN(C)C)C(NC(=O)c4ccccc4)c4ccccc4)C(C)=C1C3(C)C)C1(OC(C)=O)COC1C[C@@H]2O` (some centres undefined), the T/C reads like this: (dose: 1.88 mg/kg/injection, schedule: Q01DX009 (ip), vehicle: water) 64 % of control; (dose: 3.75 mg/kg/injection, schedule: Q01DX009 (ip), vehicle: water) 5 % of control; (dose: 5.9 mg/kg/injection, schedule: Q01DX009 (ip), vehicle: water) -78 % of control; (dose: 7.5 mg/kg/injection, schedule: Q01DX009 (ip), vehicle: water) 4 % of control; (dose: 8.9 mg/kg/injection, schedule: Q01DX009 (ip), vehicle: water) -53 % of control; (dose: 13.3 mg/kg/injection, schedule: Q01DX009 (ip), vehicle: water) -100 % of control. Also, the T/C runs as follows: (dose: 15.0 mg/kg/injection, schedule: Q01DX009 (ip), vehicle: water) -80 % of control; (dose: 20.0 mg/kg/injection, schedule: Q01DX009 (ip), vehicle: water) -100 % of control.

With `COc1cccc2c1C(=O)c1c(O)c3c(c(O)c1C2=O)CC(O)(C(=O)CO)CC3OC1CC(N)C(O)C(C)O1` (centres undefined), the T/C runs as follows: (dose: 25.0 mg/kg/injection, schedule: Q01DX010 (sc), vehicle: saline) 41 % of control; under setting [7], 22 % of control.

On to `O=C[C@@H](CO)O[C@H](C=O)n1cnc2c(=O)[nH]cnc21`, for which the T/C is 73 % of control (dose: 100.0 mg/kg/injection, schedule: Q04DX003 (sc), vehicle: saline with Tween-80); 35 % of control (dose: 200.0 mg/kg/injection, schedule: Q04DX003 (sc), vehicle: saline with Tween-80); -63 % of control (dose: 400.0 mg/kg/injection, schedule: Q04DX003 (sc), vehicle: saline with Tween-80).

As for `O=C1c2ccccc2C(Cl)(c2ccc(Cl)cc2)c2ccc(Cl)cc21` (centres undefined), the T/C is 53 % of control (dose: 150.0 mg/kg/injection, schedule: Q04DX003 (ip), vehicle: saline with Tween-80); 60 % of control under setting [8]; 48 % of control under setting [9]; 30 % of control under setting [10].
